Test results as given in ChEMBL document CHEMBL1201862, “PubChem BioAssay data set” (2004).
Activity calls are given as the source filed them. For most assays here, no stated cut-off is given here; in the data, actives have a measured EC50 and inactives only a lower limit.

How the values were obtained:
[1] = target: Multidrug resistance protein CDR1 (Candida albicans, UniProt P43071); experiment: inhibition of Nile Red efflux via Candida CDR1 – S. cerevisiae AD1-8u, singleplex, Cherry Pick1 hits, dose response (AID 588606); type: functional
Protein RecA = target: T1, Protein RecA (Mycobacterium tuberculosis, UniProt P9WHJ3); experiment: Fluorescence Cell-Free Homogeneous Dose Retest to Identify Inhibitors of RecA-Intein Splicing Activity. [Related pubchem assays (depositor defined):AID2097, AID2223, AID489010, AID492950]; type: functional
T1 sequence (P9WHJ3 whole entry): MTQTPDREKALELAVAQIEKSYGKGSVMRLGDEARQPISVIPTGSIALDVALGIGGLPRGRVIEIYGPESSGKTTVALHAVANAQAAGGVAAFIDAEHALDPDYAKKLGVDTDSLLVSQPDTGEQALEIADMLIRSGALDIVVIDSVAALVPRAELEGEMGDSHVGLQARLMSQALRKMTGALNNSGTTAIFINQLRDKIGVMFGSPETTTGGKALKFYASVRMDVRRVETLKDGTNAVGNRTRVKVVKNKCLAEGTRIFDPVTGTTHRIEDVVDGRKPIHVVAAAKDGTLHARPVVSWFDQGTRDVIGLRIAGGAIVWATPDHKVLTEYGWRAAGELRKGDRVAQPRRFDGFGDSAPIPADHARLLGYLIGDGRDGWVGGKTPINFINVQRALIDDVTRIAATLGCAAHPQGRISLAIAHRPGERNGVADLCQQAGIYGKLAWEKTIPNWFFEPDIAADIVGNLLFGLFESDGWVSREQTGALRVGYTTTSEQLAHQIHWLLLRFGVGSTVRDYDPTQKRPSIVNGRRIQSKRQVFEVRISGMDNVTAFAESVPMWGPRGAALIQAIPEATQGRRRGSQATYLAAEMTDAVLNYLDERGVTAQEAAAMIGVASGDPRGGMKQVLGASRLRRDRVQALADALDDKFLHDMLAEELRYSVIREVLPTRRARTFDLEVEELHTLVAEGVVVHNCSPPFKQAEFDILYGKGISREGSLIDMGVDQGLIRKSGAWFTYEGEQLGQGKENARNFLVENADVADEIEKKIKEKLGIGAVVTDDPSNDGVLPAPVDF

BJ [2] = experiment: cells; type: functional, cell-based; conditions: Homo sapiens
BJ [3] = experiment: growth inhibition of engineered Ras-driven BJ cells – cell-based, alamar blue fluorescence, cherrypicked samples, dose response (AID 2631); type: functional; conditions: Homo sapiens;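 further: confirmatory dose-response assay in RAS-dependent BJ fibroblasts engineered with TERT, LT and ST, with cytotoxicity read by fluorescence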
[4] = system: Streptococcus sp. 'group A'; experiment: Streptococcus pyogenes SK(-)GAS viability under kanamycin – luminescence, BacTiterGlo, confirmation, counter-screen for streptokinase expression inhibitor project, dose response (AID 1900); type: functional, organism-based
BJ [5] = experiment: BJ-TERT-LT-ST fibroblast viability loss – cell-based, RAS-independent, luminescence, dose response (AID 1935); type: functional; conditions: Homo sapiens;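 further: BJ fibroblasts immortalized with TERT plus LT and ST oncogenes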
INS1 = experiment: INS-1E survival protection against cytokine death – cell-based, luminescence, retest, dose response (AID 449756); type: functional; conditions: Rattus norvegicus;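 further: cell death triggered by IL-1 beta plus TNF-alpha plus IFN-gamma mixture; protective hits raise ATP signal compared with cytokine alone wells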
BJ [6] = experiment: BJ-TERT fibroblast viability loss – cell-based, RAS-independent, luminescence, dose response (AID 1933); type: functional; conditions: Homo sapiens
Streptokinase A = target: T2, Streptokinase A (Streptococcus pyogenes serotype M1, UniProt P10520); experiment: viability-normalized secreted streptokinase activity reduction – plasminogen activation absorbance, OD405, dose response (AID 1914); type: functional, Streptococcus pyogenes M1 GAS;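 further: secreted streptokinase activity via plasminogen activation per viability signal from cell pellet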
T2 sequence (P10520 whole entry): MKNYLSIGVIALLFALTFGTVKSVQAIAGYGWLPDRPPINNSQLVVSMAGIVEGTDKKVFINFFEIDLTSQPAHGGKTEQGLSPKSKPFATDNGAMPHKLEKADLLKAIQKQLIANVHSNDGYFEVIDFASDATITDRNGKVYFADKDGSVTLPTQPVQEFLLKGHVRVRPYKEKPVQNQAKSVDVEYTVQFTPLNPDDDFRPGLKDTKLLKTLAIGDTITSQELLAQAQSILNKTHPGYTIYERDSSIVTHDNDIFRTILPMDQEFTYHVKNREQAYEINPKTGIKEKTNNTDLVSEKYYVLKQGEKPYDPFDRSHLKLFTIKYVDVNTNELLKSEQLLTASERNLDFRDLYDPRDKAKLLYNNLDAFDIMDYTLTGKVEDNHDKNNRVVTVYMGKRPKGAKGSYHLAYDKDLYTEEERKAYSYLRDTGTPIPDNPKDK

Streptococcus = experiment: GAS UMAA2166 growth inhibition – luminescence, BacTiterGlo, counter-screen for streptokinase expression inhibitor project, dose response (AID 1915); type: functional, organism-based;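 further: potency for reduction of bacterial viability or growth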
[7] = target: T3, Replicative DNA helicase DnaB (Mycobacterium tuberculosis, UniProt P9WMR3); experiment: DnaB intein splicing inhibitors, dose response, biochemical, cell-free fluorescence (AID 449749); type: functional
T3 sequence (P9WMR3 whole entry): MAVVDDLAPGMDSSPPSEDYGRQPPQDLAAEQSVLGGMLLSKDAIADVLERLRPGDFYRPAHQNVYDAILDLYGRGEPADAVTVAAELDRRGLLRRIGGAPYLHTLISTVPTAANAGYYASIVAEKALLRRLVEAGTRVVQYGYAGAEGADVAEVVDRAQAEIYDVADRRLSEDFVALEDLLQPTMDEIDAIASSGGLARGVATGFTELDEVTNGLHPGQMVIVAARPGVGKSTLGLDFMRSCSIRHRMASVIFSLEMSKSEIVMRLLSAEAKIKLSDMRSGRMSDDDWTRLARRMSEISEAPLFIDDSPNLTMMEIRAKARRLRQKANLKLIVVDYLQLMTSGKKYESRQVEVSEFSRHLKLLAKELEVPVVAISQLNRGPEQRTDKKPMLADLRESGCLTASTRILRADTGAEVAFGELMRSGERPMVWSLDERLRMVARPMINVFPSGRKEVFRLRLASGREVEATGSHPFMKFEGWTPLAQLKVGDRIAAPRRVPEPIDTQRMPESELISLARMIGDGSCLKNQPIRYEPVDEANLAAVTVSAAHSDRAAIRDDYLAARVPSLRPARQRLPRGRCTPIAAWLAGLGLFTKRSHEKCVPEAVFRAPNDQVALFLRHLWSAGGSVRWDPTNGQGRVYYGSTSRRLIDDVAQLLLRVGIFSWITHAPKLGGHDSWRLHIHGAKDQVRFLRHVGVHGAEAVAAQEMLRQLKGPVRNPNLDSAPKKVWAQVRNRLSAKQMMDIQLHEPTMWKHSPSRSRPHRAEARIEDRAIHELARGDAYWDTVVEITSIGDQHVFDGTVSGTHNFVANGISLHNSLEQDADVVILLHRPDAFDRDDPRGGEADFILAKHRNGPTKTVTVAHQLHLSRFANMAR

[8] = DRD fibroblast viability loss – cell-based, non-viral oncogenic, luminescence, dose response (AID 1934); type: functional; conditions: Homo sapiens
[9] = HEK-293T cell viability reduction – luminescence, B-cell screen hits, cytotoxicity control for BCR NF-kB inhibitor project, dose response (AID 489021); type: functional, cell-based;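 further: HEK-293T cells carrying an NF-kB luciferase reporter; cells exposed to compound for about 14 hours before viability readout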
[10] = target: T4, Heat shock factor protein 1 (Mus musculus, UniProt P38532); experiment: decrease of HSF1-responsive luciferase luminescence – cell-based, NIH3T3, dose retest, confirmation (AID 2382); type: functional;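 further: NIH3T3 fibroblasts with HSF1-driven luciferase reporter stressed by proteasome inhibitor MG132; luminescence from HSF1-driven luciferase expression after 8 hours of MG132 stress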
T4 sequence (P38532 whole entry): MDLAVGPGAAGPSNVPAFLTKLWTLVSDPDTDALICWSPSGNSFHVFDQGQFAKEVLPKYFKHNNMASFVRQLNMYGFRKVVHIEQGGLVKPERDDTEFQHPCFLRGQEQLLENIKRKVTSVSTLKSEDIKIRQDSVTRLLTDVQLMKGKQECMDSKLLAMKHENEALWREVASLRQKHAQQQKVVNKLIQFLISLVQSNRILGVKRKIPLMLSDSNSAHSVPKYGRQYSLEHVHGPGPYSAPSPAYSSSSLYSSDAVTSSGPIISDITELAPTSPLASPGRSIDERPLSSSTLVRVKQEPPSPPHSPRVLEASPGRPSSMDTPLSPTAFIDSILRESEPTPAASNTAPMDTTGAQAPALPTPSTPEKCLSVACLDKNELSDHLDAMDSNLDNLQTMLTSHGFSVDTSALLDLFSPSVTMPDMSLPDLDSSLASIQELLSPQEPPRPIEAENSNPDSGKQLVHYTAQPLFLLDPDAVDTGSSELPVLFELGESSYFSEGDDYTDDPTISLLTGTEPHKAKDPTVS

Cysteine protease ATG4B = Cysteine protease ATG4B (Homo sapiens, UniProt Q9Y4P1); type: functional;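 further: Fluorescence-based dose-response confirmation assay measuring inhibition of ATG4B activity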
Phospholipase A2 = Phospholipase A2 (Homo sapiens, UniProt P04054); type: functional;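 further: confirmatory dose-response counterscreen on phospholipase A2, testing hits that came from an ultra-high-throughput screen for ATG4B inhibitors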
Phospholipase A2, sequence (P04054 whole entry): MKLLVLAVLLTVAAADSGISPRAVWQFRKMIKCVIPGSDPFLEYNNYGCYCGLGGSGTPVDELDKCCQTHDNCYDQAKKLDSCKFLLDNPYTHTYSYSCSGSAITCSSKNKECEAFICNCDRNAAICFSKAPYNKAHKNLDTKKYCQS

Multidrug resistance protein CDR1, sequence (P43071 whole entry, looked up): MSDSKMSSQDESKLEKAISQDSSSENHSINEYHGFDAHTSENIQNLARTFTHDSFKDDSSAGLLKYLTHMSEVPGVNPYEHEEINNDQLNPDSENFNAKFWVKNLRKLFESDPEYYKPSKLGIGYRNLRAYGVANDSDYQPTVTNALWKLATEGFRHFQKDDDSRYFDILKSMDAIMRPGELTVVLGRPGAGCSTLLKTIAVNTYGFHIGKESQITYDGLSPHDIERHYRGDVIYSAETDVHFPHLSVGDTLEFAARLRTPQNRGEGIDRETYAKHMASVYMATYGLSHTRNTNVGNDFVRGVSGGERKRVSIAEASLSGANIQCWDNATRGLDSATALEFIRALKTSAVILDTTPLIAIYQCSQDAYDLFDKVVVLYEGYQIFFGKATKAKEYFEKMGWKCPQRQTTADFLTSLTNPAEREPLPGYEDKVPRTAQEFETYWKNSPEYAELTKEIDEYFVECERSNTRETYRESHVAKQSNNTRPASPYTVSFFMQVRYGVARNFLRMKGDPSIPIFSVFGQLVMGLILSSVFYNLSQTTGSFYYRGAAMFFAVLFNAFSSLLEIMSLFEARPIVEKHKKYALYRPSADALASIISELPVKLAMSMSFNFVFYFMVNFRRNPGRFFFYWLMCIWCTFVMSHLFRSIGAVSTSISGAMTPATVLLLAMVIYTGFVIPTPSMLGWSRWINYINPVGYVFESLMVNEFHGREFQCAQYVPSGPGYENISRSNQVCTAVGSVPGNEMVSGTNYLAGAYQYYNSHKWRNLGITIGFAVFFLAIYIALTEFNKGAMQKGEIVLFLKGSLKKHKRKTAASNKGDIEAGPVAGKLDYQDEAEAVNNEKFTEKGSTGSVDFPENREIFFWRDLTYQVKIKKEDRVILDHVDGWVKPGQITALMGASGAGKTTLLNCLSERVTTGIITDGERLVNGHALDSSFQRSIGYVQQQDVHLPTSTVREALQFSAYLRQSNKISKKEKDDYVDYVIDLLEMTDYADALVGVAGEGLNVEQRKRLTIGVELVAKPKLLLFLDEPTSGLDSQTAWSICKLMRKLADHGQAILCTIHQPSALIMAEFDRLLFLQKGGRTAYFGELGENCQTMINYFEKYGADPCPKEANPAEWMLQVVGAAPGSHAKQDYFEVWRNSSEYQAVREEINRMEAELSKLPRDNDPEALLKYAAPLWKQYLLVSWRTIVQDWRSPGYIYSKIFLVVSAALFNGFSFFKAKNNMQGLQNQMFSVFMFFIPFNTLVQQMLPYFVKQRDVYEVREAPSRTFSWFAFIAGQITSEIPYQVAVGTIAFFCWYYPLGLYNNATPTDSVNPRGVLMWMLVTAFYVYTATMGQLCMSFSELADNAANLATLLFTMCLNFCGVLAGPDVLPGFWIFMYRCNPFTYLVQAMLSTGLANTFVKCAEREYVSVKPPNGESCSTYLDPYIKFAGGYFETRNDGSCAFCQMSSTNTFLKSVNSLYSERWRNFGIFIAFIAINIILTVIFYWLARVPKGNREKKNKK
Cysteine protease ATG4B, sequence (Q9Y4P1 whole entry): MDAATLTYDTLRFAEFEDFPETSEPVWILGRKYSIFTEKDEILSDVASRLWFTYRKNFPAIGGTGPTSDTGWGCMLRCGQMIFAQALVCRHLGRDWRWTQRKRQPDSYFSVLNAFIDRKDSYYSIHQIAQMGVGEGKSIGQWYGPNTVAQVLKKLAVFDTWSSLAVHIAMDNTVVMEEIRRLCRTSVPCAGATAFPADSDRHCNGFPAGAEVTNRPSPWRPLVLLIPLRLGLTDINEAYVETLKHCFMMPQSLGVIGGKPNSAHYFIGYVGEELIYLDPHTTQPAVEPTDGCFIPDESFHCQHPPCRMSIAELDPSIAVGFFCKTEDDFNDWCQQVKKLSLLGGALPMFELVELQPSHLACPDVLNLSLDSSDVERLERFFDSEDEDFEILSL

## O=C(NC(=S)Nc1ccc2[nH]c(=O)[nH]c2c1)c1cncc(Br)c1
[1]
  EC50: 2.09 µM (active)

## CC1CCc2c(sc3nc(C(C)(C)C)nc(N4CCN(C(=O)CCl)CC4)c23)C1 (configuration not stated)
Protein RecA
  EC50: 0.481 µM (active)
BJ [2]
  EC50: 5.41 µM (inconclusive)
BJ [3]
  EC50: 0.588 µM (active)
[4]
  EC50: 2.96 µM (active)
BJ [5]
  EC50: 4.69 µM (inconclusive)
INS1
  AC50: 5.84 µM (active)
BJ [6]
  EC50: 2.02 µM (active)
Streptokinase A
  EC50: 1.79 µM (active)
Streptococcus
  EC50: 14.1 µM (active)
[7]
  AC50: 2.45 µM (active)
[8]
  EC50: 5.42 µM (inconclusive)
[9]
  IC50: > 80 µM (inactive)

## O=C1C(Cc2ccccc2)Nc2ncnc(N3CCN(c4ccccc4)CC3)c2N1Cc1ccccc1 (configuration not stated)
[1]
  EC50: 14.7 µM (active)
[10]
  EC50: > 195 µM (not active)

## O=c1c2ccccc2nc(/C=C/c2ccc(O)cc2)n1CCc1ccccc1
Cysteine protease ATG4B
  IC50: 17.2 µM (active)
Phospholipase A2
  IC50: 12.2 µM (active)
